Test results from patent US10538555B2, “Macrocyclic inhibitors of the PD-1/PD-L1 and CD80(B7-1)/PD-L1 protein/protein interactions” (BRISTOL-MYERS SQUIBB COMPANY, priority 2014, dated 2020).
“And” between values parts separate entries of the source, which are not always exact repeats. Equal entries are not always repeated. Where a SMILES comes first, the peptide text is derived from it. Bridges are numbered along the chain shown (N, C = ends). [ ]: non-standard residue; d: D form. Hyp = O=C(O)[C@@H]1C[C@@H](O)CN1; NMeNle = CCCC[C@H](NC)C(=O)O; NMeA = CN[C@@H](C)C(=O)O; Orn = NCCC[C@H](N)C(=O)O; Dab = NCC[C@H](N)C(=O)O; Dap = NC[C@H](N)C(=O)O

molecular target: T1, Human PD-L1/PD-1 (Homo sapiens, UniProt Q9NZQ7); assay: HTRF Human PD-L1/PD-1 binding assay (PD-1-Ig/PD-L1-His); settings: PD-L1-His 10 nM, PD-1-Ig 20 nM; class symbol; read-out: HTRF Human PD-L1/PD-1 Binding Assay IC50 Range
T1 construct: TVMV protease cleavage site (C); made in house; host or cells: HEK293T cells
T1 sequence (Q9NZQ7 with tags, fused parts or gaps): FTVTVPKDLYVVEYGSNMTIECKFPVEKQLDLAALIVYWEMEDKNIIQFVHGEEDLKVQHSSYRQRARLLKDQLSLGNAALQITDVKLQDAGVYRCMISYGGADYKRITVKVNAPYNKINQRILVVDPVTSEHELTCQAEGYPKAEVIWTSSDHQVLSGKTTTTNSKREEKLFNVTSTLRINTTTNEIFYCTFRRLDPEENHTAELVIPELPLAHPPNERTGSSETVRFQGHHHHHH
In short: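 HTRF competition using HEK293T-expressed human PD-1(25-167)-Ig at 20 nM and PD-L1(18-239)-His at 10 nM, compound incubated first with PD-L1 for 15 min, then with PD-1 for 15 min. Signal read as 665/620 nm ratio 30 min after adding Eu anti-Ig and APC anti-His antibodies.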

IC50	Structure (SMILES)
1 to 9.9 nM	CCCC[C@H]1C(=O)N(C)[C@@H](CCCC)C(=O)N[C@@H](CCCN)C(=O)N[C@H](C(=O)NCC(N)=O)CSCC(=O)N[C@@H](Cc2ccc(OC)cc2)C(=O)N(C)[C@@H](C)C(=O)N[C@@H](CC(=O)O)C(=O)N2CCC[C@H]2C(=O)N[C@@H](CN)C(=O)N[C@@H](CCCCN)C(=O)N2C[C@H](O)C[C@H]2C(=O)N[C@@H](Cc2c[nH]c3ccccc23)C(=O)N[C@@H](CC(=O)O)C(=O)N[C@@H](Cc2c[nH]c3ccccc23)C(=O)N1C [Example 7129] ({CH2CO}-Y(Me)[NMeA]DP[Dap]K[Hyp]WDW[NMeNle][NMeNle][Orn]CG-NH2; thioether N-14)
10 to 99.9 nM	CCCC[C@H]1C(=O)N(C)[C@@H](CCCC)C(=O)N[C@@H](CCC(=O)O)C(=O)N[C@H](C(=O)NCC(N)=O)CSCC(=O)N[C@@H](Cc2ccc(OC)cc2)C(=O)N(C)[C@@H](C)C(=O)N[C@@H](CC(=O)O)C(=O)N2CCC[C@H]2C(=O)N[C@@H](CN)C(=O)N[C@@H](CCCCN)C(=O)N2C[C@H](O)C[C@H]2C(=O)N[C@@H](Cc2c[nH]c3ccccc23)C(=O)N[C@@H](CC(=O)O)C(=O)N[C@@H](Cc2c[nH]c3ccccc23)C(=O)N1C [Example 7130] ({CH2CO}-Y(Me)[NMeA]DP[Dap]K[Hyp]WDW[NMeNle][NMeNle]ECG-NH2; thioether N-14)
1 to 9.9 nM	CCCC[C@H]1C(=O)N(C)[C@@H](CCCC)C(=O)N[C@@H](CCC(=O)O)C(=O)N[C@H](C(=O)NCC(N)=O)CSCC(=O)N[C@@H](Cc2ccc(OC)cc2)C(=O)N(C)[C@@H](C)C(=O)N[C@@H](CC(=O)O)C(=O)N2CCC[C@H]2C(=O)N[C@@H](Cc2cnc[nH]2)C(=O)N[C@@H](CCCCN)C(=O)N2C[C@H](O)C[C@H]2C(=O)N[C@@H](Cc2c[nH]c3ccccc23)C(=O)N[C@@H](CC(=O)O)C(=O)N[C@@H](Cc2c[nH]c3ccccc23)C(=O)N1C [Example 7131] ({CH2CO}-Y(Me)[NMeA]DPHK[Hyp]WDW[NMeNle][NMeNle]ECG-NH2; thioether N-14)
100 to 990 nM and 10 to 99.9 nM	CCCC[C@H]1C(=O)N(C)[C@@H](CCCC)C(=O)N[C@@H](CCC(=O)O)C(=O)N[C@H](C(=O)NCC(N)=O)CSCC(=O)N[C@@H](Cc2ccc(OC)cc2)C(=O)N(C)[C@@H](C)C(=O)N[C@@H](CCN)C(=O)N2CCC[C@H]2C(=O)N[C@@H](Cc2cnc[nH]2)C(=O)N[C@@H](CCC(=O)O)C(=O)N2C[C@H](O)C[C@H]2C(=O)N[C@@H](Cc2c[nH]c3ccccc23)C(=O)N[C@@H](CC(=O)O)C(=O)N[C@@H](Cc2c[nH]c3ccccc23)C(=O)N1C [Example 7132] ({CH2CO}-Y(Me)[NMeA][Dab]PHE[Hyp]WDW[NMeNle][NMeNle]ECG-NH2; thioether N-14)
10 to 99.9 nM	CCCC[C@H]1C(=O)N(C)[C@@H](CCCC)C(=O)N[C@@H](CCC(=O)O)C(=O)N[C@H](C(=O)NCC(N)=O)CSCC(=O)N[C@@H](Cc2ccc(OC)cc2)C(=O)N(C)[C@@H](C)C(=O)N[C@@H](CC(=O)O)C(=O)N2CCC[C@H]2C(=O)N[C@@H](CN)C(=O)N[C@@H](CCC(=O)O)C(=O)N2C[C@H](O)C[C@H]2C(=O)N[C@@H](Cc2c[nH]c3ccccc23)C(=O)N[C@@H](CC(=O)O)C(=O)N[C@@H](Cc2c[nH]c3ccccc23)C(=O)N1C [Example 7133] ({CH2CO}-Y(Me)[NMeA]DP[Dap]E[Hyp]WDW[NMeNle][NMeNle]ECG-NH2; thioether N-14)

Further lines, the molecule ahead of its results:

Structure (SMILES)	IC50
CCCC[C@H]1C(=O)N(C)[C@@H](CCCC)C(=O)N[C@@H](CCC(=O)O)C(=O)N[C@H](C(=O)NCC(N)=O)CSCC(=O)N[C@@H](Cc2ccc(OC)cc2)C(=O)N(C)[C@@H](C)C(=O)N[C@@H](CCN)C(=O)N2CCC[C@H]2C(=O)N[C@@H](Cc2cnc[nH]2)C(=O)N[C@@H](CCCCN)C(=O)N2C[C@H](O)C[C@H]2C(=O)N[C@@H](Cc2c[nH]c3ccccc23)C(=O)N[C@@H](CCN)C(=O)N[C@@H](Cc2c[nH]c3ccccc23)C(=O)N1C [Example 7120] ({CH2CO}-Y(Me)[NMeA][Dab]PHK[Hyp]W[Dab]W[NMeNle][NMeNle]ECG-NH2; thioether N-14)	1 to 9.9 nM
CCCC[C@H]1C(=O)N(C)[C@@H](CCCC)C(=O)N[C@@H](CCC(=O)O)C(=O)N[C@H](C(=O)NCC(N)=O)CSCC(=O)N[C@@H](Cc2ccc(OC)cc2)C(=O)N(C)[C@@H](C)C(=O)N[C@@H](CC(N)=O)C(=O)N2CCC[C@H]2C(=O)N[C@@H](CN)C(=O)N[C@@H](CCCCN)C(=O)N2C[C@H](O)C[C@H]2C(=O)N[C@@H](Cc2c[nH]c3ccccc23)C(=O)N[C@@H](CCN)C(=O)N[C@@H](Cc2c[nH]c3ccccc23)C(=O)N1C [Example 7121] ({CH2CO}-Y(Me)[NMeA]NP[Dap]K[Hyp]W[Dab]W[NMeNle][NMeNle]ECG-NH2; thioether N-14)	1 to 9.9 nM
CCCC[C@H]1C(=O)N(C)[C@@H](CCCC)C(=O)N[C@@H](CCC(=O)O)C(=O)N[C@H](C(=O)NCC(N)=O)CSCC(=O)N[C@@H](Cc2ccc(OC)cc2)C(=O)N(C)[C@@H](C)C(=O)N[C@@H](CC(=O)O)C(=O)N2CCC[C@H]2C(=O)N[C@@H](CN)C(=O)N[C@@H](CCCCN)C(=O)N2C[C@H](O)C[C@H]2C(=O)N[C@@H](Cc2c[nH]c3ccccc23)C(=O)N[C@@H](CCN)C(=O)N[C@@H](Cc2c[nH]c3ccccc23)C(=O)N1C [Example 7122] ({CH2CO}-Y(Me)[NMeA]DP[Dap]K[Hyp]W[Dab]W[NMeNle][NMeNle]ECG-NH2; thioether N-14)	1 to 9.9 nM
CCCC[C@H]1C(=O)N(C)[C@@H](CCCC)C(=O)N[C@@H](CCC(=O)O)C(=O)N[C@H](C(=O)NCC(N)=O)CSCC(=O)N[C@@H](Cc2ccc(OC)cc2)C(=O)N(C)[C@@H](C)C(=O)N[C@@H](CCN)C(=O)N2CCC[C@H]2C(=O)N[C@@H](CN)C(=O)N[C@@H](CCCCN)C(=O)N2C[C@H](O)C[C@H]2C(=O)N[C@@H](Cc2c[nH]c3ccccc23)C(=O)N[C@@H](CCN)C(=O)N[C@@H](Cc2c[nH]c3ccccc23)C(=O)N1C [Example 7123] ({CH2CO}-Y(Me)[NMeA][Dab]P[Dap]K[Hyp]W[Dab]W[NMeNle][NMeNle]ECG-NH2; thioether N-14)	10 to 99.9 nM
CCCC[C@H]1C(=O)N(C)[C@@H](CCCC)C(=O)N[C@@H](CCC(=O)O)C(=O)N[C@H](C(=O)NCC(N)=O)CSCC(=O)N[C@@H](Cc2ccc(OC)cc2)C(=O)N(C)[C@@H](C)C(=O)N[C@@H](CC(N)=O)C(=O)N2CCC[C@H]2C(=O)N[C@@H](Cc2cnc[nH]2)C(=O)N[C@@H](CCC(=O)O)C(=O)N2C[C@H](O)C[C@H]2C(=O)N[C@@H](Cc2c[nH]c3ccccc23)C(=O)N[C@@H](CC(=O)O)C(=O)N[C@@H](Cc2c[nH]c3ccccc23)C(=O)N1C [Example 7124] ({CH2CO}-Y(Me)[NMeA]NPHE[Hyp]WDW[NMeNle][NMeNle]ECG-NH2; thioether N-14)	10 to 99.9 nM
CCCC[C@H]1C(=O)N(C)[C@@H](CCCC)C(=O)N[C@@H](CCC(=O)O)C(=O)N[C@H](C(=O)NCC(N)=O)CSCC(=O)N[C@@H](Cc2ccc(OC)cc2)C(=O)N(C)[C@@H](C)C(=O)N[C@@H](CC(=O)O)C(=O)N2CCC[C@H]2C(=O)N[C@@H](Cc2cnc[nH]2)C(=O)N[C@@H](CCC(=O)O)C(=O)N2C[C@H](O)C[C@H]2C(=O)N[C@@H](Cc2c[nH]c3ccccc23)C(=O)N[C@@H](CC(=O)O)C(=O)N[C@@H](Cc2c[nH]c3ccccc23)C(=O)N1C [Example 7125] ({CH2CO}-Y(Me)[NMeA]DPHE[Hyp]WDW[NMeNle][NMeNle]ECG-NH2; thioether N-14)	10 to 99.9 nM
CCCC[C@H]1C(=O)N(C)[C@@H](CCCC)C(=O)N[C@@H](CCC(=O)O)C(=O)N[C@H](C(=O)NCC(N)=O)CSCC(=O)N[C@@H](Cc2ccc(OC)cc2)C(=O)N(C)[C@@H](C)C(=O)N[C@@H](CCN)C(=O)N2CCC[C@H]2C(=O)N[C@@H](Cc2cnc[nH]2)C(=O)N[C@@H](CCCCN)C(=O)N2C[C@H](O)C[C@H]2C(=O)N[C@@H](Cc2c[nH]c3ccccc23)C(=O)N[C@@H](CC(=O)O)C(=O)N[C@@H](Cc2c[nH]c3ccccc23)C(=O)N1C [Example 7126] ({CH2CO}-Y(Me)[NMeA][Dab]PHK[Hyp]WDW[NMeNle][NMeNle]ECG-NH2; thioether N-14)	1000 to 10000 nM
CCCC[C@H]1C(=O)N(C)[C@@H](CCCC)C(=O)N[C@@H](CCC(=O)O)C(=O)N[C@H](C(=O)NCC(N)=O)CSCC(=O)N[C@@H](Cc2ccc(OC)cc2)C(=O)N(C)[C@@H](C)C(=O)N[C@@H](CC(N)=O)C(=O)N2CCC[C@H]2C(=O)N[C@@H](CN)C(=O)N[C@@H](CCCCN)C(=O)N2C[C@H](O)C[C@H]2C(=O)N[C@@H](Cc2c[nH]c3ccccc23)C(=O)N[C@@H](CC(=O)O)C(=O)N[C@@H](Cc2c[nH]c3ccccc23)C(=O)N1C [Example 7127] ({CH2CO}-Y(Me)[NMeA]NP[Dap]K[Hyp]WDW[NMeNle][NMeNle]ECG-NH2; thioether N-14)	10 to 99.9 nM
CCCC[C@H]1C(=O)N(C)[C@@H](CCCC)C(=O)N[C@@H](CCCN)C(=O)N[C@H](C(=O)NCC(N)=O)CSCC(=O)N[C@@H](Cc2ccc(OC)cc2)C(=O)N(C)[C@@H](C)C(=O)N[C@@H](CC(N)=O)C(=O)N2CCC[C@H]2C(=O)N[C@@H](Cc2cnc[nH]2)C(=O)N[C@@H](CCCCN)C(=O)N2C[C@H](O)C[C@H]2C(=O)N[C@@H](Cc2c[nH]c3ccccc23)C(=O)N[C@@H](CC(=O)O)C(=O)N[C@@H](Cc2c[nH]c3ccccc23)C(=O)N1C [Example 7128] ({CH2CO}-Y(Me)[NMeA]NPHK[Hyp]WDW[NMeNle][NMeNle][Orn]CG-NH2; thioether N-14)	10 to 99.9 nM

same assay, conditions: PD-L1-His 10 nM, PD-1-Ig 20 nM; read-out: HTRF Human PD-L1/PD-1 Binding Assay IC50

IC50 [nM]	Structure (SMILES)
5.6	CCCC[C@H]1C(=O)N(C)[C@@H](CCCC)C(=O)N[C@@H](CC(C)C)C(=O)N[C@H](C(=O)NCC(N)=O)CSCC(=O)N[C@@H](Cc2ccc(OC)cc2)C(=O)N(C)[C@@H](C)C(=O)N[C@@H](CC(N)=O)C(=O)N2CCC[C@H]2C(=O)N[C@@H](Cc2c[nH]cn2)C(=O)N[C@@H](CCC(N)=O)C(=O)N2C[C@H](O)C[C@H]2C(=O)N[C@@H](Cc2c[nH]c3ccccc23)C(=O)N[C@@H](CO)C(=O)N[C@@H](Cc2c[nH]c3ccccc23)C(=O)N1C [Example 7135] ({CH2CO}-Y(Me)[NMeA]NPHQ[Hyp]WSW[NMeNle][NMeNle]LCG-NH2; thioether N-14)
